This note sets out measurements from ChEMBL document CHEMBL1201862, “PubChem BioAssay data set” (2004).

Among the test systems are OVCAR-8; SR; OVCAR-4; Hs-578T; TK-10; T47D; DU-145; OVCAR-3; SF-295; HCC 2998; SK-MEL-28; PC-3; MDA-MB-231; UACC-62; M19-MEL; XF498; DLD-1; DMS-273; KM-20L2; SNB-78.
Holding throughout (test): NCI anticancer screen, dose series, 48 h

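Briefly, cells in 96-well plates were exposed to five compound concentrations for 48 h, and endpoints were estimated by linear interpolation. Abbreviation: GI50, concentration required for 50% inhibition of growth.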 The source made the active and inactive calls. No stated cut-off is given here; in the data, active = GI50 up to about 1.1 µM and inactive = higher.

With `CSCCC(NOC(=O)Cc1ccccc1)P(=O)(O)c1ccccc1` (centres undefined), the GI50 in the assay on OVCAR-8, in the assay on SR, with OVCAR-4, in the assay on Hs-578T, in the assay with TK-10 and in the assay on T47D was > 100 µM (inactive) in each case. Moreover, the GI50 with DU-145, in the assay on OVCAR-3, with SF-295, in the assay with HCC 2998, in the assay with SK-MEL-28 and in the assay on PC-3 was > 100 µM (inactive) throughout. Moreover, the GI50 in the assay with MDA-MB-231 is > 100 µM (inactive).
As for `COc1ccc2c(c1)c1c(n2CCN2CCCCC2)-c2cccc(OC)c2CC1`, the GI50 was 16.9 µM (inactive) in the assay with OVCAR-8; 4.9 µM (inactive) in the assay with SR; 29.2 µM (inactive) in the assay on OVCAR-4; 19.5 µM (inactive) with Hs-578T; 15 µM (inactive) in the assay on TK-10; 16.3 µM (inactive) with T47D. For the same compound, the GI50 is 32 µM (inactive) with DU-145; 17.2 µM (inactive) in the assay with OVCAR-3; 30.5 µM (inactive) in the assay with SF-295; 15.5 µM (inactive) in the assay with HCC 2998; 15.4 µM (inactive) with SK-MEL-28; 12.7 µM (inactive) in the assay with PC-3. For the same compound, the GI50 is 14.2 µM (inactive) in the assay on UACC-62 and 15.6 µM (inactive) in the assay on MDA-MB-231.
As for `Nc1ncnc2c1nnn2C1OC(CO)C(O)C1O` (centres undefined), the GI50 with M19-MEL was 8.57 µM (inactive); with OVCAR-8, 2.87 µM (inactive); in the assay on OVCAR-4 it was 8.85 µM (inactive); with OVCAR-3 it was 5.5 µM (inactive); in the assay on XF498 it was 6.98 µM (inactive); with SF-295, 30.1 µM (inactive). For the same compound, the GI50 in the assay with HCC 2998 was 1.83 µM (inactive); in the assay on SK-MEL-28, 12.4 µM (inactive); in the assay with DLD-1 it was 1.36 µM (inactive); in the assay with DMS-273 it was 2.62 µM (inactive); in the assay with KM-20L2, 4.2 µM (inactive); in the assay on UACC-62, 5.7 µM (inactive). Further, the GI50 with SNB-78 is 37.6 µM (inactive).
On to `CC(=O)NC(CCCCNC(=O)OC(C)(C)C)C(=O)O` (centres undefined), for which the GI50 in the assay with OVCAR-8, in the assay on OVCAR-4, in the assay with TK-10, with T47D, in the assay on DU-145 and in the assay on OVCAR-3 was > 100 µM (inactive) in each case. Besides, the GI50 in the assay with SF-295, with HCC 2998, in the assay with SK-MEL-28, in the assay with PC-3, in the assay with UACC-62 and in the assay with MDA-MB-231 was > 100 µM (inactive) each time.
Consider `CN(C)C(=O)/N=C1\SC(=N\c2ccccc2)/C(=N/c2ccccc2)N1c1ccc([N+](=O)[O-])cc1`, for which the GI50 with OVCAR-8 was > 100 µM (inactive); in the assay with SR, > 100 µM (inactive); in the assay with Hs-578T it was 51.6 µM (inactive); in the assay on T47D, > 100 µM (inactive); in the assay on DU-145, > 100 µM (inactive); in the assay with OVCAR-3, 71 µM (inactive). Besides, the GI50 is > 100 µM (inactive) in the assay on SF-295; > 100 µM (inactive) with HCC 2998; > 100 µM (inactive) in the assay on SK-MEL-28; > 100 µM (inactive) with PC-3; 77.4 µM (inactive) in the assay on UACC-62; > 100 µM (inactive) in the assay with MDA-MB-231.
`CC(C)[C@](O)(C(=O)OCC1CC[N+]2([O-])CC[C@@H](O)C12)[C@H](C)O` (some centres undefined): the GI50 with M19-MEL, in the assay with OVCAR-8, in the assay with OVCAR-4, in the assay with OVCAR-3, with XF498 and in the assay on SF-295 was > 375 µM (inactive) in each case. The GI50 is > 277 µM (inactive) in the assay with HCC 2998; > 375 µM (inactive) in the assay with SK-MEL-28; > 375 µM (inactive) in the assay with DLD-1; > 375 µM (inactive) in the assay on DMS-273; > 375 µM (inactive) in the assay with KM-20L2; > 375 µM (inactive) in the assay on UACC-62. Further, the GI50 in the assay on SNB-78 is > 375 µM (inactive).
For `CCOC(=O)CN1CCS/C1=N/C#N`, the GI50 in the assay with M19-MEL, in the assay on OVCAR-8, in the assay with OVCAR-4, in the assay on OVCAR-3, in the assay on XF498 and with HCC 2998 was > 100 µM (inactive) in each case. The GI50 in the assay with SK-MEL-28, with DLD-1, in the assay on DMS-273, in the assay on KM-20L2, in the assay with UACC-62 and in the assay with SNB-78 was > 100 µM (inactive) throughout.
On to `CC(=O)Nc1ccc2oc(=O)c3ccccc3c2c1`, for which the GI50 in the assay on OVCAR-8, in the assay on SR, in the assay with OVCAR-4, in the assay with Hs-578T, with T47D and in the assay with DU-145 was > 100 µM (inactive) each time. Moreover, the GI50 was > 100 µM (inactive) in the assay on OVCAR-3; > 100 µM (inactive) in the assay on SF-295; > 100 µM (inactive) in the assay with HCC 2998; > 100 µM (inactive) with SK-MEL-28; > 100 µM (inactive) in the assay on PC-3; 50.9 µM (inactive) in the assay with UACC-62.
`CCNC(=O)C(C)C1CCC2(C)C=CC(=O)C(C)=C2C1O` (centres undefined): the GI50 in the assay on M19-MEL is > 100 µM (inactive); with OVCAR-8, > 100 µM (inactive); in the assay on OVCAR-4 it was > 100 µM (inactive); in the assay on OVCAR-3 it was > 100 µM (inactive); with XF498, > 100 µM (inactive); in the assay on SF-295 it was > 93.5 µM (inactive). The GI50 was > 100 µM (inactive) with HCC 2998; > 100 µM (inactive) with SK-MEL-28; > 100 µM (inactive) in the assay on DLD-1; > 77.4 µM (inactive) in the assay on DMS-273; > 100 µM (inactive) in the assay on KM-20L2; > 100 µM (inactive) in the assay on UACC-62. In addition, the GI50 in the assay on SNB-78 was > 100 µM (inactive).
Regarding `CC(C)(C)[Si](C)(C)OCCCC#CCO`, the GI50 in the assay with OVCAR-8, in the assay on OVCAR-4, in the assay on TK-10, with XF498, in the assay on SF-295 and with HCC 2998 was > 100 µM (inactive) each time. For the same compound, the GI50 in the assay with SK-MEL-28, in the assay with DLD-1, with DMS-273, in the assay with KM-20L2, with UACC-62 and in the assay with SNB-78 was > 100 µM (inactive) throughout.
Take `Cc1cn(C2CC(O)C(Cn3cc(Cn4nc(Br)c(=O)[nH]c4=O)nn3)O2)c(=O)[nH]c1=O` (centres undefined): the GI50 in the assay with OVCAR-8, in the assay with OVCAR-4, in the assay with Hs-578T, with TK-10, in the assay on T47D and in the assay with DU-145 was > 100 µM (inactive) in each case. Besides, the GI50 in the assay with OVCAR-3, in the assay on SF-295, with HCC 2998, in the assay with SK-MEL-28, with PC-3 and with UACC-62 was > 100 µM (inactive) each time. For the same compound, the GI50 with MDA-MB-231 was > 100 µM (inactive).
`COC1CCC(CO)OO1` (centres undefined): the GI50 is 60.4 µM (inactive) with M19-MEL; 24.3 µM (inactive) in the assay on SR; 45.9 µM (inactive) with OVCAR-4; 18 µM (inactive) in the assay on OVCAR-3; 14.1 µM (inactive) in the assay with SF-295; 52 µM (inactive) in the assay with SK-MEL-28. Further, the GI50 with KM-20L2 was 23.9 µM (inactive); in the assay on UACC-62 it was 70.3 µM (inactive); in the assay with SNB-78, 15.9 µM (inactive).
For the compound `Clc1ccc(C2SCc3nc4ccccc4n32)cc1` (centres undefined), the GI50 was 19.9 µM (inactive) with M19-MEL; 29.1 µM (inactive) with OVCAR-8; 30.1 µM (inactive) with TK-10; 24.8 µM (inactive) in the assay on OVCAR-3; 8.2 µM (inactive) with XF498; 26.2 µM (inactive) with SF-295. Also, the GI50 with SK-MEL-28 was 21.2 µM (inactive); in the assay with DMS-273, 15.4 µM (inactive); with KM-20L2 it was 28.2 µM (inactive); in the assay on UACC-62 it was 13.8 µM (inactive); with SNB-78 it was 29.9 µM (inactive).
`COc1ccc(NC(=S)NNC(=O)c2nsc3ccccc23)cc1`: the GI50 in the assay with M19-MEL was 33 µM (inactive); in the assay on OVCAR-8, 43.7 µM (inactive); with SR it was 31 µM (inactive); in the assay on OVCAR-4, 62.2 µM (inactive); in the assay with TK-10, 43.4 µM (inactive); in the assay with OVCAR-3, 22.2 µM (inactive). In addition, the GI50 in the assay on HCC 2998 was 68.2 µM (inactive); in the assay with SK-MEL-28 it was 34.3 µM (inactive); in the assay on DMS-273, 26.1 µM (inactive); in the assay with KM-20L2, 39.1 µM (inactive); with UACC-62, 27.7 µM (inactive); with SNB-78, 41.7 µM (inactive).
On to `CSC1=C(SC)C(=O)c2cn(C)c(=O)cc2C1=O`, for which the GI50 in the assay on OVCAR-8 was > 44.1 µM (inactive); in the assay on SR it was < 0.0332 µM (active); in the assay with OVCAR-4, 1.97 µM (inactive); with Hs-578T, 7.67 µM (inactive); in the assay on TK-10 it was 2.33 µM (inactive); in the assay with T47D, 2.05 µM (inactive). The GI50 with DU-145 is 8.47 µM (inactive); in the assay with OVCAR-3 it was 1.91 µM (inactive); in the assay on SF-295, 13 µM (inactive); with HCC 2998 it was 17.1 µM (inactive); with SK-MEL-28 it was 2.82 µM (inactive); with PC-3, 9.55 µM (inactive). Also, the GI50 in the assay on UACC-62 is 2.7 µM (inactive); in the assay on MDA-MB-231, 1.87 µM (inactive).
With `C[N+](C)(CCO)CCN1c2ccccc2Sc2ccccc21`, the GI50 in the assay with OVCAR-8, with SR, in the assay with OVCAR-4, in the assay on Hs-578T, in the assay on TK-10 and in the assay with T47D was > 10 µM (inactive) in each case. The GI50 with DU-145, in the assay with OVCAR-3, with SF-295, with HCC 2998, in the assay with SK-MEL-28 and in the assay on PC-3 was > 10 µM (inactive) throughout. In addition, the GI50 with UACC-62 and in the assay on MDA-MB-231 was > 10 µM (inactive) throughout.
